{
  "source": "the supplement of paper PMC10307832",
  "experiment_in_all_cases": "relative viability (nuclei count vs DMSO), 5 days (fraction); higher = more cells survive",
  "key": {"EPLC-272H": {"test_system": "EPLC-272H", "summary_of_the_method": "(§1)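 One day after seeding in 1536-well plates, lung cancer cell lines were dosed by pin tool. Dosing was either single-drug or a fixed anchor-drug dose plus five library-drug doses (not always all listed) in √10 steps. After 5 days, nuclei were stained in one fix-and-stain step and counted on 4× images, and relative viability is the nuclei count of treated wells over that of vehicle wells, given as the median of duplicate plates.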"}, "NCI-H2085": {"test_system": "NCI-H2085", "summary_of_the_method": "as §1"}, "UMC-11": {"test_system": "UMC-11", "summary_of_the_method": "as §1"}, "SW 1573": {"test_system": "SW 1573", "summary_of_the_method": "as §1"}, "HARA": {"test_system": "HARA", "summary_of_the_method": "as §1"}, "LOU-NH91": {"test_system": "LOU-NH91", "summary_of_the_method": "as §1"}, "NCI-H2009": {"test_system": "NCI-H2009", "summary_of_the_method": "as §1"}, "NCI-H650": {"test_system": "NCI-H650", "summary_of_the_method": "as §1"}, "SW 900": {"test_system": "SW 900", "summary_of_the_method": "as §1"}, "LC-2-ad": {"test_system": "LC-2-ad", "summary_of_the_method": "as §1"}, "NCI-H1651": {"test_system": "NCI-H1651", "summary_of_the_method": "as §1"}, "NCI-H23": {"test_system": "NCI-H23", "summary_of_the_method": "as §1"}},
  "data": [
    {"smiles": "CCNC(=O)c1noc(-c2cc(C(C)C)c(O)cc2O)c1-c1ccc(CN2CCOCC2)cc1", "note": "[Luminespib] + COc1cc2c(Oc3ccc(NC(=O)C4(C(=O)Nc5ccc(F)cc5)CC4)cc3F)ccnc2cc1OCCCN1CCOCC1 [Foretinib] (partner 0.25 µM)", "values": [
      {"measurement": "relative viability", "setting": "EPLC-272H; first compound 0.002 µM", "result": 0.74},
      {"measurement": "relative viability", "setting": "EPLC-272H; first compound 0.006325 µM", "result": 0.666},
      {"measurement": "relative viability", "setting": "EPLC-272H; first compound 0.06325 µM", "result": 0.625},
      {"measurement": "relative viability", "setting": "EPLC-272H; first compound 0.2 µM", "result": 0.0989},
      {"measurement": "relative viability", "setting": "NCI-H2085; first compound 0.002 µM", "result": 1.19},
      {"measurement": "relative viability", "setting": "NCI-H2085; first compound 0.006325 µM", "result": 0.896},
      {"measurement": "relative viability", "setting": "NCI-H2085; first compound 0.02 µM", "result": 1.07},
      {"measurement": "relative viability", "setting": "NCI-H2085; first compound 0.06325 µM", "result": 0.603},
      {"measurement": "relative viability", "setting": "NCI-H2085; first compound 0.2 µM", "result": 0.457},
      {"measurement": "relative viability", "setting": "UMC-11; first compound 0.002 µM", "result": 1.14},
      {"measurement": "relative viability", "setting": "UMC-11; first compound 0.006325 µM", "result": 0.982},
      {"measurement": "relative viability", "setting": "UMC-11; first compound 0.02 µM", "result": 0.816},
      {"measurement": "relative viability", "setting": "UMC-11; first compound 0.06325 µM", "result": 0.561},
      {"measurement": "relative viability", "setting": "UMC-11; first compound 0.2 µM", "result": 0.169},
      {"measurement": "relative viability", "setting": "SW 1573; first compound 0.002 µM", "result": 0.91},
      {"measurement": "relative viability", "setting": "SW 1573; first compound 0.006325 µM", "result": 0.766},
      {"measurement": "relative viability", "setting": "SW 1573; first compound 0.02 µM", "result": 0.521},
      {"measurement": "relative viability", "setting": "SW 1573; first compound 0.06325 µM", "result": 0.148},
      {"measurement": "relative viability", "setting": "SW 1573; first compound 0.2 µM", "result": 0.119},
      {"measurement": "relative viability", "setting": "HARA; first compound 0.002 µM", "result": 1.09},
      {"measurement": "relative viability", "setting": "HARA; first compound 0.006325 µM", "result": 0.728},
      {"measurement": "relative viability", "setting": "HARA; first compound 0.02 µM", "result": 1.08},
      {"measurement": "relative viability", "setting": "HARA; first compound 0.06325 µM", "result": 0.922},
      {"measurement": "relative viability", "setting": "HARA; first compound 0.2 µM", "result": 0.785},
      {"measurement": "relative viability", "setting": "LOU-NH91; first compound 0.002 µM", "result": 0.922},
      {"measurement": "relative viability", "setting": "LOU-NH91; first compound 0.006325 µM", "result": 0.95},
      {"measurement": "relative viability", "setting": "LOU-NH91; first compound 0.02 µM", "result": 0.577},
      {"measurement": "relative viability", "setting": "LOU-NH91; first compound 0.06325 µM", "result": 0.378},
      {"measurement": "relative viability", "setting": "LOU-NH91; first compound 0.2 µM", "result": 0.298},
      {"measurement": "relative viability", "setting": "NCI-H2009; first compound 0.002 µM", "result": 1.22},
      {"measurement": "relative viability", "setting": "NCI-H2009; first compound 0.006325 µM", "result": 1.16},
      {"measurement": "relative viability", "setting": "NCI-H2009; first compound 0.02 µM", "result": 1.33},
      {"measurement": "relative viability", "setting": "NCI-H2009; first compound 0.06325 µM", "result": 0.298},
      {"measurement": "relative viability", "setting": "NCI-H2009; first compound 0.2 µM", "result": 0.0898},
      {"measurement": "relative viability", "setting": "NCI-H650; first compound 0.002 µM", "result": 1.09},
      {"measurement": "relative viability", "setting": "NCI-H650; first compound 0.006325 µM", "result": 0.974},
      {"measurement": "relative viability", "setting": "NCI-H650; first compound 0.02 µM", "result": 0.782},
      {"measurement": "relative viability", "setting": "NCI-H650; first compound 0.06325 µM", "result": 0.811},
      {"measurement": "relative viability", "setting": "NCI-H650; first compound 0.2 µM", "result": 0.149},
      {"measurement": "relative viability", "setting": "SW 900; first compound 0.002 µM", "result": 0.966},
      {"measurement": "relative viability", "setting": "SW 900; first compound 0.006325 µM", "result": 0.742},
      {"measurement": "relative viability", "setting": "SW 900; first compound 0.02 µM", "result": 0.813},
      {"measurement": "relative viability", "setting": "SW 900; first compound 0.06325 µM", "result": 0.134},
      {"measurement": "relative viability", "setting": "SW 900; first compound 0.2 µM", "result": 0.117},
      {"measurement": "relative viability", "setting": "LC-2-ad; first compound 0.002 µM", "result": 1.02},
      {"measurement": "relative viability", "setting": "LC-2-ad; first compound 0.006325 µM", "result": 0.928},
      {"measurement": "relative viability", "setting": "LC-2-ad; first compound 0.02 µM", "result": 0.834},
      {"measurement": "relative viability", "setting": "LC-2-ad; first compound 0.06325 µM", "result": 0.321},
      {"measurement": "relative viability", "setting": "LC-2-ad; first compound 0.2 µM", "result": 0.25},
      {"measurement": "relative viability", "setting": "NCI-H1651; first compound 0.002 µM", "result": 0.837},
      {"measurement": "relative viability", "setting": "NCI-H1651; first compound 0.006325 µM", "result": 0.718},
      {"measurement": "relative viability", "setting": "NCI-H1651; first compound 0.02 µM", "result": 0.826},
      {"measurement": "relative viability", "setting": "NCI-H1651; first compound 0.06325 µM", "result": 0.309},
      {"measurement": "relative viability", "setting": "NCI-H1651; first compound 0.2 µM", "result": 0.208},
      {"measurement": "relative viability", "setting": "NCI-H23; first compound 0.002 µM", "result": 1.26},
      {"measurement": "relative viability", "setting": "NCI-H23; first compound 0.006325 µM", "result": 1.03}
    ]}
  ]
}
